From patent US10376586B2, “Method and compositions for solubilizing non-polar constituents” (Entourage Bioscience, LLC, priority 2016, dated 2019)
One block for each compound: values may come before it.

Assays:
[1] = cited from earlier work
[2] = solubility / solubilization in the MCT carrier oil; conditions: for stable solution concentration in MCTs: MCTs (0.0-6.0% C6, 6.0-60% C8, 6.0-60% C10), stirring at 85 degrees Celsius for 5 minutes
Excerpt: The process for solubilizing target compounds according to the disclosure comprises, in particular, the following steps: (a) preparation of a carrier liquid solution comprising a mixture of medium-chain triglycerides, an amount of this carrier liquid solution is used, the amount depending on the amount of target compound to be solubilized; (b) admixing the carrier liquid solution with the target compound; (c) and, optionally, admixing a stabilizing compound to the carrier liquid/target compound. In some cases, depending on the compound to be solubilized, solvents that dissolve both polar and non-polar compounds such as ethanol, methanol, acetonitrile, 1-butanol or isopropyl alcohol, may be added to encourage solubilization, and then removed by vacuum evaporation. As another aspect, during compounding, dry inert gas may be filtered through the mixture to remove moisture.
Riboflavin is known to have poor solubility in aqueous solutions and organic solvents. […] It may be desirable to solubilize a higher concentration of riboflavin in an ENDS. […] This mixture may then be added to MCTs (for example 0.0-6.0% C6, 6.0-60% C8, and/or 6.0-60% C10), homogenized for 5 minutes and subsequently heated to approximately 85 degrees Celsius at 250 mb (or 250 hPa) pressure in a rotary evaporator to drive off the methanol.
Another example may be sulbutiamine. Sulbutiamine is a disulfide dimer of thiamine. […] It may be desirable to provide sulbutiamine in an ENDS. […]

[3] = cited from earlier work; remark: listed apart in the source
[4] = cited from earlier work; remark: listed apart in the source
[5] = cited from earlier work; remark: listed apart in the source

stable solution concentration in MCTs [2]: 200 mg/mL
Compound: CC(=C(CCOC(=O)C(C)C)SSC(CCOC(=O)C(C)C)=C(C)N(C=O)Cc1cnc(C)nc1N)N(C=O)Cc1cnc(C)nc1N (stereo in doubt) [sulbutiamine, reference compound]
solubility in fats [1]: highly soluble
solubility in aqueous solutions ([3]; aqueous solutions): insoluble

quantity incorporated into the carrier oil by admixing [2]: < 2 mg/mL
Compound: CC1=C(/C=C/C(C)=C/C=C/C(C)=C/C=C/C=C(C)/C=C/C=C(C)/C=C/C2=C(C)C(=O)[C@@H](O)CC2(C)C)C(C)(C)C[C@H](O)C1=O [Astaxanthin]

Compound: C=C(C)[C@@H]1CCC(C)=C[C@H]1c1c(O)cc(CCCCC)cc1O [Cannabidiol, cannabidiol, reference compound]
solubilized amount in MCTs ([2]; MCTs, stirring at 45 to 65 degrees Celsius for 5 minutes): up to 80 percent v/v

quantity incorporated into the carrier oil by admixing [2]: < 2 mg/mL
Compound: CC1=CCCC(C)(C)C1/C=C/C(C)=C/C=C/C(C)=C/C=C/C=C(C)/C=C/C=C(C)/C=C/C1=C(C)CCCC1(C)C (stereo not drawn) [alpha-carotene]

stable solution concentration in MCTs [2]: 200 mg/mL
Compound: CCCCCCCCCCCCCCCC(=O)OC[C@H](O)[C@H]1OC(=O)C(O)=C1O [ascorbyl palmitate]

stable solution concentration in MCTs [2]: 200 mg/mL
Compound: CC1=C[C@H](O)CC(C)(C)[C@H]1/C=C/C(C)=C/C=C/C(C)=C/C=C/C=C(C)/C=C/C=C(C)/C=C/C1=C(C)C[C@@H](O)CC1(C)C [lutein]

stable solution concentration in MCTs [2]: 200 mg/mL
Compound: CC(C)=CCC/C(C)=C/C=C/C(C)=C/C=C/C(C)=C/C=C/C=C(C)/C=C/C=C(C)/C=C/C=C(\C)CCC=C(C)C [lycopene]

Compound: O=C(O)Cc1ccccc1 [phenylacetic acid]
log P (partition co-efficient) [4]: comparable to benzoic acid
pKa [5]: comparable to benzoic acid

solubility in MCTs versus aqueous solutions [2]: an order of magnitude greater solubility
Compound: Cc1cc2nc3c(=O)[nH]c(=O)nc-3n(C[C@H](O)[C@H](O)[C@H](O)CO)c2cc1C [riboflavin]
solubility in vegetable glycerin, propylene glycol and water ([3]; vegetable glycerin, propylene glycol and water): less than 0.2 mg/ml

Compound: C=C1CC[C@H](O)C/C1=C/C=C1\CCC[C@]2(C)[C@@H]([C@H](C)CCCC(C)C)CC[C@@H]12 [vitamin-D3]
miscibility with the carrier oil ([2]; simple admixing with the carrier oil): any proportion
